# Molecular target: T1, human full-length MKNK1 (Homo sapiens, UniProt Q9BUB5, T385D)
# T1 construct: GST (N); purchased Carna Biosciences 02-145; host or cells: insect cells (baculovirus expression system)
# Experiment: MKNK1 kinase high ATP assay (TR-FRET)
# Type: biochemical
# Settings: high ATP (2 mM final), 15 min preincubation with enzyme, 30 min reaction at 22° C.
# Method: MKNK1-inhibitory activity at high ATP of compounds of the present invention after their preincubation with MKNK1 was quantified employing the TR-FRET-based MKNK1 high ATP assay as described in the following paragraphs.
# A recombinant fusion protein of Glutathione-S-Transferase (GST, N-terminally) and human full-length MKNK1 (amino acids 1-424 and T344D of accession number BAA 19885.1), expressed in insect cells using baculovirus expression system and purified via glutathione sepharose affinity chromatography, was purchased from Carna Biosciences (product no 02-145) and used as enzyme. As substrate for the kinase reaction the biotinylated peptide biotin-Ahx-IKKRKLTRRKSLKG (C-terminus in amide form) was used, which can be purchased e.g. from the company Biosyntan (Berlin-Buch, Germany).
# For the assay 50 nL of a 100 fold concentrated solution of the test compound in DMSO was pipetted into a black low volume 384 well microtiter plate (Greiner Bio-One, Frickenhausen, Germany), 2 μL of a solution of MKNK1 in aqueous assay buffer [50 mM HEPES pH 7.5, 5 mM MgCl2, 1.0 mM dithiothreitol, 0.005% (v/v) Nonidet-P40 (Sigma)] was added and the mixture was incubated for 15 min at 22° C. to allow pre-binding of the test compounds to the enzyme before the start of the kinase reaction. Then the kinase reaction was started by the addition of 3 μL of a solution of adenosine-tri-phosphate (ATP, 3.3 mM=>final conc. in the 5 μL assay volume is 2 mM) and substrate (0.1 μM=>final conc. in the 5 μL assay volume is 0.06 μM) in assay buffer and the resulting mixture was incubated for a reaction time of 30 min at 22° C. The concentration of MKNK1 was adjusted depending of the activity of the enzyme lot and was chosen appropriate to have the assay in the linear range, typical concentrations were in the range of 0.003 μg/mL. The reaction was stopped by the addition of 5 μL of a solution of TR-FRET detection reagents (5 nM streptavidine-XL665 [Cisbio Bioassays, Codolet, France] and 1 nM anti-ribosomal protein S6 (pSer236)-antibody from Invitrogen [#44921G] and 1 nM LANCE EU-W1024 Labeled ProteinG [Perkin-Elmer, product no. AD0071]) in an aqueous EDTA-solution (100 mM EDTA, 0.1% (w/v) bovine serum albumin in 50 mM HEPES pH 7.5).
# The resulting mixture was incubated for 1 h at 22° C. to allow the formation of complex between the phosphorylated biotinylated peptide and the detection reagents. Subsequently the amount of phosphorylated substrate was evaluated by measurement of the resonance energy transfer from the Eu-chelate to the streptavidine-XL. Therefore, the fluorescence emissions at 620 nm and 665 nm after excitation at 350 nm were measured in a TR-FRET reader, e.g. a Rubystar (BMG Labtechnologies, Offenburg, Germany) or a Viewlux (Perkin-Elmer). The ratio of the emissions at 665 nm and at […] was taken as the measure for the amount of phosphorylated substrate. The data were normalised (enzyme reaction without inhibitor=0% inhibition, all other assay components but no enzyme=100% inhibition).
# T1 sequence (Q9BUB5 1-424 isoform Q9BUB5-2 T344D): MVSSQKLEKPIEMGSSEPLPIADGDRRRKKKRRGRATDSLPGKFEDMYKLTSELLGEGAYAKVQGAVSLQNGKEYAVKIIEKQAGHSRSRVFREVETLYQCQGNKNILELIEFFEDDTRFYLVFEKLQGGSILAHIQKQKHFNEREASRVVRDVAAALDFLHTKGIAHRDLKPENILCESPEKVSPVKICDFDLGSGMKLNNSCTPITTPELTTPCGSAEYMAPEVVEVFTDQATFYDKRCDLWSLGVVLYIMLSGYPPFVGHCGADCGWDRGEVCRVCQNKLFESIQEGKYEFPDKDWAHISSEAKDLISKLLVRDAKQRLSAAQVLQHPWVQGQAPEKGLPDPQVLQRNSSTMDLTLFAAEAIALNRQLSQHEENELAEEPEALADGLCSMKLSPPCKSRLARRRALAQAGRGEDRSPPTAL
row,Compound,IC50 [nM]
1,"CC(C)NC(=O)c1c[nH]c2ncnc(Nc3cc4cn[nH]c4cc3OC(C)C)c12 [Example 31, N-(Propan-2-yl)-4-{[6-(propan-2-yloxy)-1H-indazol-5-yl]amino}-7H-pyrrolo[2,3-d]pyrimidine-5-carboxamide]",94
2,"COc1cc2[nH]ncc2cc1Nc1ncnc2[nH]c(C(=O)N3CCOC[C@H]3C)c(Br)c12 [Example 67, {5-Bromo-4-[(6-methoxy-1H-indazol-5-yl)amino]-7H-pyrrolo[2,3-d]pyrimidin-6-yl}[(3R)-3-methylmorpholin-4-yl]methanone]",3
3,"Cc1ccc(S(=O)(=O)c2cc3c(Nc4cc5cn[nH]c5cc4OC(C)C)ncnc3[nH]2)cc1 [Example 53, 6-[(4-Methylphenyl)sulfonyl]-N-[6-(propan-2-yloxy)-1H-indazol-5-yl]-7H-pyrrolo[2,3-d]pyrimidin-4-amine]",2
4,"CCc1[nH]c2ncnc(Nc3cc4cn[nH]c4cc3OC(C)C)c2c1C [Example 27, 6-Ethyl-5-methyl-N-[6-(propan-2-yloxy)-1H-indazol-5-yl]-7H-pyrrolo[2,3-d]pyrimidin-4-amine]",3
5,"CC(C)Oc1cc2[nH]ncc2cc1Nc1ncnc2[nH]cc(F)c12 [Example 25, 5-Fluoro-N-[6-(propan-2-yloxy)-1H-indazol-5-yl]-7H-pyrrolo[2,3-d]pyrimidin-4-amine]",5
6,"COc1cc2[nH]ncc2cc1Nc1ncnc2[nH]c(C(=O)N3CCC3)c(Br)c12 [Example 66, Azetidin-1-yl{5-bromo-4-[(6-methoxy-1H-indazol-5-yl)amino]-7H-pyrrolo[2,3-d]pyrimidin-6-yl}methanone]",2
7,"CC(C)Oc1cc2[nH]ncc2cc1Nc1ncnc2[nH]c(S(C)(=O)=O)cc12 [Example 54, 6-(Methylsulfonyl)-N-[6-(propan-2-yloxy)-1H-indazol-5-yl]-7H-pyrrolo[2,3-d]pyrimidin-4-amine]",37
8,"CC(C)Oc1cc2[nH]ncc2cc1Nc1ncnc2[nH]cc(C(=O)N(C)C)c12 [Example 30, N,N-Dimethyl-4-{[6-(propan-2-yloxy)-1H-indazol-5-yl]amino}-7H-pyrrolo[2,3-d]pyrimidine-5-carboxamide]",141
9,"FC(F)(F)c1n[nH]c2ccc(Nc3ncnc4[nH]ccc34)cc12 [Example 7, N-[3-(trifluoromethyl)-1H-indazol-5-yl]-7H-pyrrolo[2,3-d]pyrimidin-4-amine]",179
10,"COc1cc2[nH]ncc2cc1Nc1ncnc2[nH]c(S(=O)(=O)c3ccc(C)cc3)cc12 [Example 51, N-(6-Methoxy-1H-indazol-5-yl)-6-[(4-methylphenyl)sulfonyl]-7H-pyrrolo[2,3-d]pyrimidin-4-amine]",1
11,"Cc1cc2[nH]ncc2cc1Nc1ncnc2[nH]cc(C(=O)O)c12 [Example 8, 4-[(6-Methyl-1H-indazol-5-yl)amino]-7H-pyrrolo[2,3-d]pyrimidine-5-carboxylic acid]",72
12,"COc1cc2[nH]ncc2cc1Nc1ncnc2[nH]c(C(=O)N3C[C@H]4C[C@@H]3CO4)c(Br)c12 [Example 65, {5-Bromo-4-[(6-methoxy-1H-indazol-5-yl)amino]-7H-pyrrolo[2,3-d]pyrimidin-6-yl}[(1R,4R)-2-oxa-5-azabicyclo[2.2.1]hept-5-yl]methanone]",4
13,"CN(C)C(=O)c1c[nH]c2ncnc(Nc3cc4cn[nH]c4cc3F)c12 [Example 16, 4-[(6-Fluoro-1H-indazol-5-yl)amino]-N, N-dimethyl-7H-pyrrolo[2,3-d]pyrimidine-5-carboxamide]",31
14,"COc1cc2[nH]ncc2cc1Nc1ncnc2[nH]c(CCCO)cc12 [Example 23, 3-{4-[(6-Methoxy-1H-indazol-5-yl)amino]-7H-pyrrolo[2,3-d]pyrimidin-6-yl}propan-1-ol]",27
15,"Cc1cc2[nH]ncc2cc1Nc1ncnc2[nH]cc(C(=O)NC(C)C)c12 [Example 14, 4-[(6-Methyl-1H-indazol-5-yl)amino]-N-(propan-2-yl)-7H-pyrrolo[2,3-d]pyrimidine-5-carboxamide]",34
16,"CCOC(=O)c1[nH]c2ncnc(Nc3cc4cn[nH]c4cc3OC)c2c1Br [Example 47, Ethyl 5-bromo-4-[(6-methoxy-1H-indazol-5-yl)amino]-7H-pyrrolo[2,3-d]pyrimidine-6-carboxylate]",< 1
17,"COc1cc2[nH]ncc2cc1Nc1ncnc2[nH]c(C(=O)N3CCCC3)c(Br)c12 [Example 61, {5-Bromo-4-[(6-methoxy-1H-indazol-5-yl)amino]-7H-pyrrolo[2,3-d]pyrimidin-6-yl}(pyrrolidin-1-yl)methanone]",1
18,"COc1cc2[nH]ncc2cc1Nc1ncnc2[nH]c(C(=O)O)c(Br)c12 [Example 48, 5-Bromo-4-[(6-methoxy-1H-indazol-5-yl)amino]-7H-pyrrolo[2,3-d]pyrimidine-6-carboxylic acid]",< 1
19,"Fc1cc2[nH]ncc2cc1Nc1ncnc2[nH]c(Br)cc12 [Example 55, 6-Bromo-N-(6-fluoro-1H-indazol-5-yl)-7H-pyrrolo[2,3-d]pyrimidin-4-amine]",98
20,"CC(C)Oc1cc2[nH]ncc2cc1Nc1ncnc2[nH]c(Br)cc12 [Example 36, 6-Bromo-N-[6-(propan-2-yloxy)-1H-indazol-5-yl]-7H-pyrrolo[2,3-d]pyrimidin-4-amine]",34
21,"N#Cc1n[nH]c2ccc(Nc3ncnc4[nH]ccc34)cc12 [Example 43, 5-(7H-Pyrrolo[2,3-d]pyrimidin-4-ylamino)-1H-indazole-3-carbonitrile]",1340
22,"COc1cc2[nH]ncc2cc1Nc1ncnc2[nH]c(S(C)(=O)=O)cc12 [Example 21, N-(6-Methoxy-1H-indazol-5-yl)-6-(methylsulfonyl)-7H-pyrrolo[2,3-d]pyrimidin-4-amine]",6
23,"COc1cc2[nH]ncc2cc1Nc1ncnc2[nH]c(Cl)cc12 [Example 41, 6-Chloro-N-(6-methoxy-1H-indazol-5-yl)-7H-pyrrolo[2,3-d]pyrimidin-4-amine]",21
24,"CCCc1[nH]c2ncnc(Nc3cc4cn[nH]c4cc3OC(C)C)c2c1CC [Example 45, 5-Ethyl-N-[6-(propan-2-yloxy)-1H-indazol-5-yl]-6-propyl-7H-pyrrolo[2,3-d]pyrimidin-4-amine]",21
25,"CN1CCN(C(=O)c2c[nH]c3ncnc(Nc4cc5cn[nH]c5cc4F)c23)CC1 [Example 17, {4-[(6-Fluoro-1H-indazol-5-yl)amino]-7H-pyrrolo[2,3-d]pyrimidin-5-yl}(4-methylpiperazin-1-yl)methanone]",30
26,"CC(C)Oc1cc2[nH]ncc2cc1Nc1ncnc2[nH]cc(C#N)c12 [Example 34, 4-[(6-Isopropoxy-1H-indazol-5-yl)amino]-7H-pyrrolo[2,3-d]pyrimidine-5-carbonitrile]",2
27,"CCOC(=O)c1cc2c(Nc3cc4cn[nH]c4cc3OC)ncnc2[nH]1 [Example 42, Ethyl 4-[(6-methoxy-1H-indazol-5-yl)amino]-7H-pyrrolo[2,3-d]pyrimidine-6-carboxylate]",3
28,"COc1cc2[nH]ncc2cc1Nc1ncnc2[nH]cc(Br)c12 [Example 19, 5-Bromo-N-(6-methoxy-1H-indazol-5-yl)-7H-pyrrolo[2,3-d]pyrimidin-4-amine]",1
29,"Cc1cc2[nH]ncc2cc1Nc1ncnc2[nH]cc(F)c12 [Example 11, 5-Fluoro-N-(6-methyl-1H-indazol-5-yl)-7H-pyrrolo[2,3-d]pyrimidin-4-amine]",74
